Like-named read-outs stand apart in the source and are kept apart here.

For 13 compounds, inhibition results are on record in publication PMC9516332 (Frontiers in Oncology, 2022).

What all share (assay): Kinase panel profiling at 1 µmol/L (MSA or IMAP), percentage inhibition
What all share (format): biochemical

Experiment [1] addresses panel of 255 wild-type kinases (Homo sapiens, UniProt P29376). The note with it: read-out: %-inhibition at 1 µmol/L, LTK.
Experiment [2] deals with panel of 255 wild-type kinases (Homo sapiens, UniProt P00519). The settings on record: read-out: %-inhibition ABL.
For experiment [3], the target named is panel of 255 wild-type kinases (Homo sapiens, UniProt P50613). The note with it: read-out: %-inhibition CDK7/CycH/MAT1.
Experiment [4] concerns the target panel of 255 wild-type kinases (Homo sapiens, UniProt P07947). The settings on record: read-out: %-inhibition at 1 µmol/L, YES.
The target of experiment [5] is T1, panel of 255 wild-type kinases (Homo sapiens, UniProt Q12866).
T1 sequence (Q12866 21-999): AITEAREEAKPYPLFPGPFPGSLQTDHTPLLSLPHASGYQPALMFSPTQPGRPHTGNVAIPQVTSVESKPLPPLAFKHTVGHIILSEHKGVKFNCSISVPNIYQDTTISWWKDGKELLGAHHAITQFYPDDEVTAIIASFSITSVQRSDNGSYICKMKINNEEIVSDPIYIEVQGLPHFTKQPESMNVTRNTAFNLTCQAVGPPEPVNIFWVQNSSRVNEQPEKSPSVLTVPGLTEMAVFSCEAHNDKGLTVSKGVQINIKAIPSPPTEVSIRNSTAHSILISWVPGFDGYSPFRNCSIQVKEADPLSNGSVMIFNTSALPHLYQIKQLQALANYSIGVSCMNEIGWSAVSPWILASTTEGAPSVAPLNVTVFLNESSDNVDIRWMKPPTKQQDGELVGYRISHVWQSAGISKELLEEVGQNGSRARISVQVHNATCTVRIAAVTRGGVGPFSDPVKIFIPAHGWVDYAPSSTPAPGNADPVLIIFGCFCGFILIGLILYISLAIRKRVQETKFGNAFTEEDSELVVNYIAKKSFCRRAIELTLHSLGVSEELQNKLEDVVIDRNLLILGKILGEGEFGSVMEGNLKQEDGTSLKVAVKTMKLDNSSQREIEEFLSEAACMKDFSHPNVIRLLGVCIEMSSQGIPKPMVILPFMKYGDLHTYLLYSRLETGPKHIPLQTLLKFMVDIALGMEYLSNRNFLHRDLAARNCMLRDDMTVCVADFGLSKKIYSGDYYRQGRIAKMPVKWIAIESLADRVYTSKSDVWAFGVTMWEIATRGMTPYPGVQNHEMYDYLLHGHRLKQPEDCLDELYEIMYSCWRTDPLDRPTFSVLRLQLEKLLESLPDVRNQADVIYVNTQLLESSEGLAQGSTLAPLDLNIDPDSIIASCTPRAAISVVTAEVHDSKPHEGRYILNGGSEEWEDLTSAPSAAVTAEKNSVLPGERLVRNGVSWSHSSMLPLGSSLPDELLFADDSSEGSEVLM
The settings on record: read-out: %-inhibition, MER.

The target of experiment [6] is panel of 255 wild-type kinases (Homo sapiens, UniProt O96017). The note with it: read-out: %-inhibition CHK2.
The target of experiment [7] is panel of 255 wild-type kinases (Homo sapiens, UniProt Q13131). The settings on record: read-out: %-inhibition AMPKα1/β1/γ1.
Experiment [8] has as its target panel of 255 wild-type kinases (Homo sapiens, UniProt P19784). The settings on record: read-out: %-inhibition at 1 µmol/L, CK2α2/β.
The target in experiment [9] is T2, panel of 255 wild-type kinases (Homo sapiens, UniProt P42681).
T2 sequence (P42681 1-527): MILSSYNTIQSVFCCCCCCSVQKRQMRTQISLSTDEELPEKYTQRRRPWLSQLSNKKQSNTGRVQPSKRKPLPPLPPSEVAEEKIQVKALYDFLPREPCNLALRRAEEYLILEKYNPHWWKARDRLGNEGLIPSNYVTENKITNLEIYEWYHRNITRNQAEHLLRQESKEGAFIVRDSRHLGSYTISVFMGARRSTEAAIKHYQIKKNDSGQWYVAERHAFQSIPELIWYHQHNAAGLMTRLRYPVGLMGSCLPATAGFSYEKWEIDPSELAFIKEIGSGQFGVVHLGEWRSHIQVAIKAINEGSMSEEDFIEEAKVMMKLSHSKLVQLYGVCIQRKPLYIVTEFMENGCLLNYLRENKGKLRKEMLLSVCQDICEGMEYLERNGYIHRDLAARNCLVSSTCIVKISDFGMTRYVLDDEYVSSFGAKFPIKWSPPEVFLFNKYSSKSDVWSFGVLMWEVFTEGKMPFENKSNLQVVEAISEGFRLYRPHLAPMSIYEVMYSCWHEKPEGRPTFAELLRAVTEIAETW
The note with it: read-out: %-inhibition at 1 µmol/L, TXK.

Setting [10] is: kinase LTK, 1 µmol/L single concentration.
Setting [11] is: ABL kinase assay, 1 µmol/L single concentration.
Setting [12] is: CDK7/CycH/MAT1 kinase assay, 1 µmol/L single concentration.
Where [13] appears, read: kinase YES, 1 µmol/L single concentration.
[14] abbreviates: MER, 1 µmol/L single concentration.
Where [15] appears, read: CHK2 kinase assay, 1 µmol/L single concentration.
Setting [16] is: AMPKα1/β1/γ1 kinase assay, 1 µmol/L single concentration.
The mark [17] stands for this setting: kinase CK2α2/β, 1 µmol/L single concentration.
Where [18] appears, read: kinase TXK, 1 µmol/L single concentration.

With `Cc1nc(NC(=O)N2CCC[C@H]2C(N)=O)sc1-c1ccnc(C(C)(C)C(F)(F)F)c1` [alpelisib], the inhibition at 1 µM in [1] (setting [10]) was -2.85%; in experiment [2] (setting [11]), 16%; in experiment [3] (setting [12]), -4%; in experiment [4] (setting [13]), -4%; in [5] (setting [14]), -3.44%; in experiment [6] (setting [15]) it was -1.14%. The inhibition at 1 µM in experiment [7] (setting [16]) is -5%; in experiment [8] (setting [17]) it was -1.53%; in [9] (setting [18]) it was -4%.
With `Cn1cc(-c2cc3c(N4CCN(c5ncc([C@@](C)(N)c6ccc(F)cc6)cn5)CC4)ncnn3c2)cn1` [avapritinib], the inhibition at 1 µM in experiment [1] (setting [10]) is 51%; in experiment [2] (setting [11]), 57%; in [3] (setting [12]), 0.833%; in [4] (setting [13]) it was 83%; in [5] (setting [14]), 17%; in [6] (setting [15]), 5.47%. Also, the inhibition at 1 µM in [7] (setting [16]) was 9%; in experiment [8] (setting [17]), -1.79%; in [9] (setting [18]) it was 20%.
Regarding `Cn1cnc2c(F)c(Nc3ccc(Br)cc3F)c(C(=O)NOCCO)cc21` [binimetinib], the inhibition at 1 µM in experiment [1] (setting [10]) was 0.411%; in experiment [2] (setting [11]) it was -1.53%; in [3] (setting [12]), -5%; in experiment [4] (setting [13]), 2.16%; in experiment [5] (setting [14]), -2.19%; in experiment [6] (setting [15]), 4.21%. In addition, the inhibition at 1 µM in experiment [7] (setting [16]) was -7%; in [8] (setting [17]), -1.89%; in [9] (setting [18]), -3%.
As for `CNC(=O)c1ccc(-c2cnc3ncc(Cc4ccc5ncccc5c4)n3n2)cc1F` [capmatinib], the inhibition at 1 µM in [1] was 49%; in experiment [2], -1.84%; in experiment [3] it was -0.376%; in experiment [4], 1.32%; in [5], 13%; in [6], -1.52%. Moreover, the inhibition at 1 µM in experiment [7] is -4.64%; in [8], -0.77%; in experiment [9] it was 2.34%.
Turning to `COc1cc2ncnc(Nc3ccc(F)c(Cl)c3)c2cc1NC(=O)/C=C/CN1CCCCC1` [dacomitinib], the inhibition at 1 µM in experiment [1] (setting [10]) was 21%; in experiment [3] (setting [12]), 3.35%; in experiment [5] (setting [14]), 19%; in [6] (setting [15]) it was 23%; in [7] (setting [16]), -12%; in experiment [8] (setting [17]) it was 1.11%. In addition, in experiment [9] (setting [18]), the inhibition at 1 µM was 80%.
`C[C@H](Nc1ncnc2nc[nH]c12)c1cc2cccc(Cl)c2c(=O)n1-c1ccccc1` [duvelisib]: the inhibition at 1 µM in [1] (setting [10]) is 0.216%; in experiment [2] (setting [11]), -2%; in experiment [3] (setting [12]), -5.41%; in experiment [4] (setting [13]), -2.44%; in experiment [5] (setting [14]) it was -1%; in [6] (setting [15]), -3.49%. In addition, the inhibition at 1 µM in experiment [7] (setting [16]) is -4%; in [8] (setting [17]), -1.47%; in [9] (setting [18]), -0.177%.
On to `COC(=O)N[C@@H](C)CNc1nccc(-c2cn(C(C)C)nc2-c2cc(Cl)cc(NS(C)(=O)=O)c2F)n1` [encorafenib], for which the inhibition at 1 µM in experiment [1] (setting [10]) was 0.605%; in [2] (setting [11]) it was -5.41%; in experiment [3] (setting [12]) it was -6.5%; in [4] (setting [13]) it was 3.55%; in experiment [5] (setting [14]), 0.281%; in [6] (setting [15]) it was 7%. In addition, the inhibition at 1 µM in [7] (setting [16]) was -2.31%; in experiment [8] (setting [17]), -3.75%; in [9] (setting [18]) it was -3.43%.
Regarding `CN1CCN(c2ccc(C(=O)Nc3n[nH]c4ccc(Cc5cc(F)cc(F)c5)cc34)c(NC3CCOCC3)c2)CC1` [entrectinib], the inhibition at 1 µM is 100% in experiment [1] (setting [10]); 77% in experiment [2] (setting [11]); 27% in [3] (setting [12]); 98% in experiment [4] (setting [13]); 61% in [5] (setting [14]); 31% in [6] (setting [15]). Besides, the inhibition at 1 µM came to 55% in [7] (setting [16]), 2% in experiment [8] (setting [17]) and 98% in experiment [9] (setting [18]).
For `CCc1nc(C(N)=O)c(Nc2ccc(N3CCC(N4CCN(C)CC4)CC3)c(OC)c2)nc1NC1CCOCC1` [gilteritinib], the inhibition at 1 µM was determined as 101% in [1] (setting [10]); 40% in experiment [2] (setting [11]); 31% in experiment [3]; 98% in [4] (setting [13]); 100% in experiment [5]; 75% in experiment [6] (setting [15]). Also, the inhibition at 1 µM in experiment [7] (setting [16]) was found to be 0.625%; in [8] (setting [17]), 23%; in experiment [9] (setting [18]), 79%.
In the case of `CCN1CCN(c2ccc(Nc3cc(N(C)C(=O)Nc4c(Cl)c(OC)cc(OC)c4Cl)ncn3)cc2)CC1` [infigratinib], the inhibition at 1 µM in [1] (setting [10]) is 60%; in experiment [2] (setting [11]), 10%; in experiment [3] (setting [12]) it was 9%; in experiment [4] (setting [13]), 77%; in experiment [5] (setting [14]) it was 15%; in [6] (setting [15]) it was -0.482%. Besides, the inhibition at 1 µM was -4% in experiment [7] (setting [16]), -2.17% in [8] (setting [17]) and 4.32% in experiment [9] (setting [18]).
In the case of `O=C(Nc1cnn2ccc(N3CCC[C@@H]3c3cc(F)ccc3F)nc12)N1CC[C@H](O)C1` [larotrectinib], the inhibition at 1 µM in experiment [1] (setting [10]) is 16%; in [2] (setting [11]) it was -7%; in experiment [3] (setting [12]), -8%; in [4] (setting [13]), -2.66%; in [5] (setting [14]), 6%; in experiment [6] (setting [15]) it was 3.46%. For the same compound, the inhibition at 1 µM was -5.64% in experiment [7] (setting [16]), -3% in experiment [8] (setting [17]) and 16% in experiment [9] (setting [18]).
With `C[C@H]1Oc2cc(cnc2N)-c2c(nn(C)c2C#N)CN(C)C(=O)c2ccc(F)cc21` [lorlatinib], the inhibition at 1 µM in [2] (setting [11]) is -2.34%; in experiment [4] (setting [13]), 28%; in [5] (setting [14]), 11%; in experiment [6] (setting [15]), 41%; in experiment [7] (setting [16]) it was -3.58%; in experiment [8] (setting [17]), -2.41%. The inhibition at 1 µM in [9] (setting [18]) came out at 3.52%.
In the case of `C=CC(=O)N1CCC([C@@H]2CCNc3c(C(N)=O)c(-c4ccc(Oc5ccccc5)cc4)nn32)CC1` [zanubrutinib], the inhibition at 1 µM in experiment [1] (setting [10]) was 0.209%; in [2] (setting [11]) it was -4.52%; in experiment [3] (setting [12]) it was -9%; in experiment [5] (setting [14]), 6%; in experiment [6] (setting [15]), 4%; in experiment [7] (setting [16]), -5.51%. The inhibition at 1 µM is -4% in experiment [8] (setting [17]) and 89% in experiment [9] (setting [18]).
